Test results: ChEMBL document CHEMBL1201861, “Genomics of Drug Sensitity in Cancer screening data, Wellcome Trust Sanger Institute”

Key:
Experiment in all cases: cells
Conditions in all cases: Homo sapiens
ALL-PO = assay type: functional, cell-based;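 further: growth inhibition of ALL-PO cells, read out by a cell viability assay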
Description: SANGER: Inhibition of human ALL-PO cell growth in a cell viability assay.

GB-1 = assay type: functional, cell-based;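 further: growth of GB-1 cells judged by a viability assay, IC50 marks the concentration inhibiting growth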
Description: SANGER: Inhibition of human GB-1 cell growth in a cell viability assay.

MHH-PREB-1 = assay type: functional, cell-based;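 further: cell viability assay measuring inhibition of proliferation of human MHH-PREB-1 cells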
Description: SANGER: Inhibition of human MHH-PREB-1 cell growth in a cell viability assay.

U-266 = assay type: functional, cell-based
Description: SANGER: Inhibition of human U-266 cell growth in a cell viability assay.

GI-1 = assay type: functional, cell-based
Description: SANGER: Inhibition of human GI-1 cell growth in a cell viability assay.

SW684 = assay type: functional, cell-based;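 further: growth inhibition of human SW684 cells, measured by a cell viability assay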
Description: SANGER: Inhibition of human SW684 cell growth in a cell viability assay.

DMS-114 = assay type: functional, cell-based
CTB-1 = assay type: functional, cell-based
Description: SANGER: Inhibition of human CTB-1 cell growth in a cell viability assay.

Becker = assay type: functional, cell-based;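 further: growth inhibition of Becker cells, read out with a cell viability assay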
Description: SANGER: Inhibition of human Becker cell growth in a cell viability assay.

NCI-H510A = assay type: functional, cell-based;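 further: growth inhibition of NCI-H510A cells, read out with a cell viability assay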
Description: SANGER: Inhibition of human NCI-H510A cell growth in a cell viability assay.

ES3 = assay type: functional, cell-based;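 further: growth inhibition of ES3 cells, read out with a cell viability assay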
Description: SANGER: Inhibition of human ES3 cell growth in a cell viability assay.

SW982 = assay type: functional, cell-based;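 further: growth inhibition of SW982 cells, read out with a cell viability assay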
Description: SANGER: Inhibition of human SW982 cell growth in a cell viability assay.

DMS-79 = assay type: functional, cell-based;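 further: growth inhibition measured with a cell viability assay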
Description: SANGER: Inhibition of human DMS-79 cell growth in a cell viability assay.

SNB-75 = assay type: functional, cell-based;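 further: cell viability assay measuring growth inhibition of human SNB-75 cells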
Description: SANGER: Inhibition of human SNB75 cell growth in a cell viability assay.

ES7 = assay type: functional, cell-based;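 further: growth inhibition of cultured human ES7 cells, read out as cell viability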
Description: SANGER: Inhibition of human ES7 cell growth in a cell viability assay.

NCI-H446 = assay type: functional, cell-based;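 further: growth inhibition of NCI-H446 cells determined by a cell viability assay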
Description: SANGER: Inhibition of human NCI-H446 cell growth in a cell viability assay.

MLMA = assay type: functional, cell-based;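 further: growth inhibition of MLMA cells (human), determined through a cell viability readout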
Description: SANGER: Inhibition of human MLMA cell growth in a cell viability assay.

SW 954 = assay type: functional, cell-based;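 further: growth inhibition of SW954 human cancer cells, read out as cell viability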
Description: SANGER: Inhibition of human SW954 cell growth in a cell viability assay.

D-502MG = assay type: functional, cell-based
Description: SANGER: Inhibition of human D-502MG cell growth in a cell viability assay.

HCC2218 = assay type: functional, cell-based;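 further: cell viability assay read-out, with IC50 given as the concentration that inhibits growth of the cell line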
Description: SANGER: Inhibition of human HCC2218 cell growth in a cell viability assay.

LU-139 = assay type: functional, cell-based
Description: SANGER: Inhibition of human LU-139 cell growth in a cell viability assay.

MOLT-4 = assay type: functional, cell-based;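 further: growth inhibition of MOLT-4 cells, determined with a cell viability readout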
Description: SANGER: Inhibition of human MOLT-4 cell growth in a cell viability assay.

MV4-11 = assay type: functional, cell-based, MV-4-11;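 further: cell viability readout measuring growth inhibition of human MV-4-11 cells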
Description: SANGER: Inhibition of human MV-4-11 cell growth in a cell viability assay.

EC-GI-10 = assay type: functional, cell-based
Description: SANGER: Inhibition of human EC-GI-10 cell growth in a cell viability assay.

TGBC24TKB = assay type: functional, cell-based;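 further: growth inhibition of human TGBC24TKB cells, read out with a cell viability assay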
Description: SANGER: Inhibition of human TGBC24TKB cell growth in a cell viability assay.

KURAMOCHI = assay type: functional, cell-based;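 further: growth inhibition of KURAMOCHI cells, read out with a cell viability assay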
Description: SANGER: Inhibition of human KURAMOCHI cell growth in a cell viability assay.

ATN-1 = assay type: functional, cell-based;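 further: growth inhibition of human ATN-1 cells, read out with a cell viability assay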
Description: SANGER: Inhibition of human ATN-1 cell growth in a cell viability assay.

OMC-1 = assay type: functional, cell-based;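 further: growth inhibition of the OMC-1 cell line, measured by a cell viability assay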
Description: SANGER: Inhibition of human OMC-1 cell growth in a cell viability assay.

D283 Med = assay type: functional, cell-based
Description: SANGER: Inhibition of human D-283MED cell growth in a cell viability assay.

MSTO-211H = assay type: functional, cell-based
Description: SANGER: Inhibition of human MSTO-211H cell growth in a cell viability assay.

Ramos-2G6-4C10 = assay type: functional, cell-based;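 further: growth inhibition of the cell line, measured by a cell viability read-out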
Description: SANGER: Inhibition of human Ramos-2G6-4C10 cell growth in a cell viability assay.

MZ2-MEL = assay type: functional, cell-based;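 further: growth inhibition of MZ2-MEL cells read out with a cell viability assay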
Description: SANGER: Inhibition of human MZ2-MEL cell growth in a cell viability assay.

BB30-HNC = assay type: functional, cell-based;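 further: growth inhibition of the cultured cell line, read out by a cell viability assay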
Description: SANGER: Inhibition of human BB30-HNC cell growth in a cell viability assay.

KP-N-YS = assay type: functional, cell-based;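 further: cell viability assay measuring inhibition of cell line growth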
Description: SANGER: Inhibition of human KP-N-YS cell growth in a cell viability assay.

697 = assay type: functional, cell-based
Description: SANGER: Inhibition of human 697 cell growth in a cell viability assay.

RPMI-8226 = assay type: functional, cell-based
Description: SANGER: Inhibition of human RPMI-8226 cell growth in a cell viability assay.

CW-2 = assay type: functional, cell-based;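 further: growth inhibition of CW-2 cells, read out by a cell viability assay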
Description: SANGER: Inhibition of human CW-2 cell growth in a cell viability assay.

IST-MES1 = assay type: functional, cell-based;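 further: growth inhibition of IST-MES1 cells, measured with a cell viability assay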
Description: SANGER: Inhibition of human IST-MES1 cell growth in a cell viability assay.

NCI-H1299 = assay type: functional, cell-based;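 further: growth inhibition of human NCI-H1299 cells, read out by a cell viability assay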
Description: SANGER: Inhibition of human NCI-H1299 cell growth in a cell viability assay.

OCI-AML2 = assay type: functional, cell-based;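 further: growth inhibition of OCI-AML2 cells, read out with a cell viability assay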
Description: SANGER: Inhibition of human OCI-AML2 cell growth in a cell viability assay.

BB65-RCC = assay type: functional, cell-based;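 further: growth inhibition of the cell line, measured with a cell viability assay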
Description: SANGER: Inhibition of human BB65-RCC cell growth in a cell viability assay.

LS-513 = assay type: functional, cell-based
Description: SANGER: Inhibition of human LS-513 cell growth in a cell viability assay.

ES6 = assay type: functional, cell-based;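 further: growth inhibition of human ES6 cells, read out with a cell viability assay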
Description: SANGER: Inhibition of human ES6 cell growth in a cell viability assay.

ES1 = assay type: functional, cell-based
Description: SANGER: Inhibition of human ES1 cell growth in a cell viability assay.

LU-134-A = assay type: functional, cell-based
Description: SANGER: Inhibition of human LU-134-A cell growth in a cell viability assay.

ONS-76 = assay type: functional, cell-based;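 further: growth inhibition of human ONS-76 cells, read out with a cell viability assay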
Description: SANGER: Inhibition of human ONS-76 cell growth in a cell viability assay.

KU812 cell line = assay type: functional, cell-based;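 further: growth inhibition of KU812 cells, read out with a cell viability assay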
Description: SANGER: Inhibition of human KU812 cell growth in a cell viability assay.

LB2241-RCC = assay type: functional, cell-based;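 further: cell viability assay measuring how strongly the cultured human renal carcinoma line is prevented from growing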
Description: SANGER: Inhibition of human LB2241-RCC cell growth in a cell viability assay.

MC116 = assay type: functional, cell-based;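 further: growth inhibition of MC116 cells, read out with a cell viability assay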
Description: SANGER: Inhibition of human MC116 cell growth in a cell viability assay.

NH-12 = assay type: functional, cell-based;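 further: growth inhibition of NH-12 cells, read out with a cell viability assay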
Description: SANGER: Inhibition of human NH-12 cell growth in a cell viability assay.

SNU1 = assay type: functional, cell-based;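 further: growth inhibition of human NCI-SNU-1 cells, measured with a cell viability assay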
Description: SANGER: Inhibition of human NCI-SNU-1 cell growth in a cell viability assay.

HT = assay type: functional, cell-based
Description: SANGER: Inhibition of human HT cell growth in a cell viability assay.

SF-539 = assay type: functional, cell-based;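 further: Read-out is a cell viability assay, with IC50 reflecting inhibition of cell growth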
Description: SANGER: Inhibition of human SF539 cell growth in a cell viability assay.

DU-4475 = assay type: functional, cell-based
Description: SANGER: Inhibition of human DU-4475 cell growth in a cell viability assay.

SK-MEL-1 = assay type: functional, cell-based;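 further: growth inhibition of human SK-MEL-1 cells, read out by a cell viability assay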
Description: SANGER: Inhibition of human SK-MEL-1 cell growth in a cell viability assay.

NB13 = assay type: functional, cell-based;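 further: cell viability readout measuring growth inhibition of human NB13 cells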
Description: SANGER: Inhibition of human NB13 cell growth in a cell viability assay.

NB69 = assay type: functional, cell-based;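 further: growth inhibition of NB69 cells, determined by a cell viability assay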
Description: SANGER: Inhibition of human NB69 cell growth in a cell viability assay.

JVM-3 = assay type: functional, cell-based;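 further: growth inhibition of human JVM-3 cells, read out with a cell viability assay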
Description: SANGER: Inhibition of human JVM-3 cell growth in a cell viability assay.

J-RT3-T3-5 = assay type: functional, cell-based;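 further: cell viability assay measuring growth inhibition of human J-RT3-T3-5 cells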
Description: SANGER: Inhibition of human J-RT3-T3-5 cell growth in a cell viability assay.

KG-1 = assay type: functional, cell-based;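 further: growth inhibition of KG-1 cells, read out by a cell viability assay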
Description: SANGER: Inhibition of human KG-1 cell growth in a cell viability assay.

SK-N-FI = assay type: functional, cell-based;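 further: cell viability assay measuring growth inhibition of human SK-N-FI cells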
Description: SANGER: Inhibition of human SK-N-FI cell growth in a cell viability assay.

NCI-H1770 = assay type: functional, cell-based;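 further: growth inhibition of NCI-H1770 cells determined with a viability readout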
Description: SANGER: Inhibition of human NCI-H1770 cell growth in a cell viability assay.

LB771-HNC = assay type: functional, cell-based;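 further: growth inhibition of LB771-HNC human cells, read out with a cell viability assay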
Description: SANGER: Inhibition of human LB771-HNC cell growth in a cell viability assay.

HDLM-2 = assay type: functional, cell-based
Description: SANGER: Inhibition of human HDLM-2 cell growth in a cell viability assay.

CP66-MEL = assay type: functional, cell-based
Description: SANGER: Inhibition of human CP66-MEL cell growth in a cell viability assay.

CC[C@@]1(O)C(=O)OCc2c1cc1n(c2=O)Cc2cc3ccccc3nc2-1 [CAMPTOTHECIN]
IC50 (ALL-PO): 1.53 nM | IC50 (GB-1): 4.68 nM | IC50 (MHH-PREB-1): 2.73 nM | IC50 (U-266): 69.5 nM | IC50 (GI-1): 3.37 nM | IC50 (SW684): > 100 nM | IC50 (DMS-114): 81.1 nM | IC50 (CTB-1): 0.429 nM | IC50 (Becker): 23.3 nM | IC50 (NCI-H510A): 1.7 nM | IC50 (ES3): 0.931 nM | IC50 (SW982): 4.06 nM | IC50 (DMS-79): 31.8 nM | IC50 (SNB-75): 17.3 nM | IC50 (ES7): 0.0254 nM | IC50 (NCI-H446): 56.6 nM | IC50 (MLMA): 8.14 nM | IC50 (SW 954): 20.3 nM | IC50 (D-502MG): 22.6 nM | IC50 (HCC2218): 55.5 nM | IC50 (LU-139): 16.4 nM | IC50 (MOLT-4): 1.62 nM | IC50 (MV4-11): 0.706 nM | IC50 (EC-GI-10): 7.9 nM | IC50 (TGBC24TKB): 53.7 nM | IC50 (KURAMOCHI): > 100 nM | IC50 (ATN-1): 2.04 nM | IC50 (OMC-1): 78.2 nM | IC50 (D283 Med): 3.2 nM | IC50 (MSTO-211H): 8.24 nM | IC50 (Ramos-2G6-4C10): 10.5 nM | IC50 (MZ2-MEL): 14.1 nM | IC50 (BB30-HNC): 21.5 nM | IC50 (KP-N-YS): > 100 nM | IC50 697: 2.03 nM | IC50 (RPMI-8226): 29.5 nM | IC50 (CW-2): 35.4 nM | IC50 (IST-MES1): 10.6 nM | IC50 (NCI-H1299): 9.43 nM | IC50 (OCI-AML2): 0.887 nM | IC50 (BB65-RCC): 1.85 nM | IC50 (LS-513): 19.4 nM | IC50 (ES6): 88 nM | IC50 (ES1): 0.0957 nM | IC50 (LU-134-A): 0.586 nM | IC50 (ONS-76): 2.41 nM | IC50 (KU812 cell line): 8.36 nM | IC50 (LB2241-RCC): 2.08 nM | IC50 (MC116): 15.9 nM | IC50 (NH-12): 3.79 nM | IC50 (SNU1): 1.09 nM | IC50 (HT): 29.7 nM | IC50 (SF-539): 9.01 nM | IC50 (DU-4475): 3.07 nM | IC50 (SK-MEL-1): 51.3 nM | IC50 (NB13): 28.8 nM | IC50 (NB69): 0.569 nM | IC50 (JVM-3): 2.5 nM | IC50 (J-RT3-T3-5): 2.58 nM | IC50 (KG-1): 1.11 nM

Cc1nc(Nc2ncc(C(=O)Nc3c(C)cccc3Cl)s2)cc(N2CCN(CCO)CC2)n1 [DASATINIB]
IC50 (ALL-PO): > 1280 nM | IC50 (GB-1): 21.6 nM | IC50 (MHH-PREB-1): 745 nM | IC50 (U-266): > 1280 nM | IC50 (GI-1): > 1280 nM | IC50 (SK-N-FI): > 1280 nM | IC50 (SW684): 350 nM | IC50 (DMS-114): > 1280 nM | IC50 (CTB-1): > 1280 nM | IC50 (Becker): 30 nM | IC50 (NCI-H1770): > 1280 nM | IC50 (NCI-H510A): > 1280 nM | IC50 (ES3): > 1280 nM | IC50 (SW982): 11.1 nM | IC50 (DMS-79): > 1280 nM | IC50 (SNB-75): 44.4 nM | IC50 (ES7): > 1280 nM | IC50 (NCI-H446): 628 nM | IC50 (MLMA): 140 nM | IC50 (SW 954): 29.3 nM | IC50 (D-502MG): 1230 nM | IC50 (HCC2218): > 1280 nM | IC50 (LU-139): > 1280 nM | IC50 (MOLT-4): > 1280 nM | IC50 (MV4-11): > 1280 nM | IC50 (EC-GI-10): > 1280 nM | IC50 (TGBC24TKB): 47.6 nM | IC50 (KURAMOCHI): 34.9 nM | IC50 (ATN-1): > 1280 nM | IC50 (OMC-1): > 1280 nM | IC50 (D283 Med): > 1280 nM | IC50 (MSTO-211H): > 1280 nM | IC50 (Ramos-2G6-4C10): > 1280 nM | IC50 (MZ2-MEL): 285 nM | IC50 (BB30-HNC): 54.4 nM | IC50 (KP-N-YS): > 1280 nM | IC50 697: 200 nM | IC50 (RPMI-8226): > 1280 nM | IC50 (CW-2): > 1280 nM | IC50 (IST-MES1): 85.5 nM | IC50 (OCI-AML2): > 1280 nM | IC50 (BB65-RCC): 82.3 nM | IC50 (LS-513): > 1280 nM | IC50 (ES6): 31.9 nM | IC50 (LB771-HNC): > 1280 nM | IC50 (ES1): > 1280 nM | IC50 (LU-134-A): > 1280 nM | IC50 (ONS-76): 430 nM | IC50 (KU812 cell line): 119 nM | IC50 (LB2241-RCC): > 1280 nM | IC50 (MC116): 114 nM | IC50 (HDLM-2): > 1280 nM | IC50 (NH-12): > 1280 nM | IC50 (SNU1): > 1280 nM | IC50 (HT): > 1280 nM | IC50 (SF-539): > 1280 nM | IC50 (DU-4475): > 1280 nM | IC50 (SK-MEL-1): > 1280 nM | IC50 (NB13): > 1280 nM | IC50 (NB69): 144 nM | IC50 (JVM-3): > 1280 nM | IC50 (J-RT3-T3-5): > 1280 nM | IC50 (KG-1): > 1280 nM | IC50 (CP66-MEL): 195 nM
